We go through 9 compounds from PubChem BioAssay (NCI).

Structures are written as SMILES. “And” between values parts separate entries of the source, which are not always exact repeats. Equal entries are not always repeated.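 48-hour exposure; five concentrations; linearly interpolated endpoints. GI50 marks 50% less growth. TGI is the concentration that stops growth completely.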 Some results are limits rather than exact numbers.

Holding throughout (experiment): NCI tumour cell line growth inhibition, 48 h
The subject of assay [1] is DU-145 prostate.
Assay [2] relates to HCT-116 colon.
Assay [3] has as its system HS 578T breast.
Assay [4] concerns MDA-MB-231 breast.
Assay [5] relates to NCI-H23 lung.
Assay [6] relates to OVCAR-5 ovarian.
Assay [7] relates to SF-295 CNS.
Assay [8] concerns T-47D breast.

Consider `Cc1c(Cl)cccc1NC(=O)c1sc2nc3c(cc2c1N)C(=O)CCC3`, for which the GI50 in assay [1] was 0.124 µM; in assay [2] it was 0.0644 µM; in assay [3], 0.0479 µM; in assay [4], 0.138 µM; in assay [5] it was 0.137 µM; in assay [6], 0.283 µM. For the same compound, the GI50 in assay [7] was 0.0429 µM; in assay [8], 0.055 µM. Besides, the TGI in assay [1] was 47.3 µM; in assay [2], greater than 100 µM; in assay [3] it was greater than 58.2 µM; in assay [4] it was 16.5 µM; in assay [5], greater than 100 µM; in assay [6], greater than 100 µM. Further, the TGI in assay [7] and in assay [8] was greater than 100 µM in each case.

Take `O=C1c2ccn(CCCNC(CO)(CO)CO)c2C(=O)c2c1c(O)c1ccccc1c2O`: the GI50 in assay [1] was 11.5 µM; in assay [2] it was 1.9 µM; in assay [3] it was 1.22 µM; in assay [4], 8.39 µM; in assay [5], 15.2 µM; in assay [7], 15 µM. Further, the GI50 in assay [8] is 16.4 µM. Besides, the TGI in assay [1] was 25 µM; in assay [2], 13.9 µM; in assay [4], 25.2 µM; in assay [5] it was 30.5 µM; in assay [6], 13.5 µM; in assay [7], greater than 49.8 µM. In assay [8], the TGI came out at 50.9 µM.

Consider `COc1c(B(O)O)cccc1-c1nc2ccc3[nH]ncc3c2c2c1CCCC2`, for which the GI50 in assay [1] was 2.23 µM; in assay [2] it was 0.473 µM; in assay [3] it was 0.0622 µM; in assay [4] it was 0.0201 µM; in assay [5], 2.48 µM; in assay [6] it was 2.45 µM. The GI50 is 1.89 µM in assay [7] and 3.36 µM in assay [8]. Also, the TGI is 25.9 µM in assay [1]; greater than 96.7 µM in assay [2]; 7.92 µM in assay [3]; 25.1 µM in assay [4]; 9.28 µM in assay [5]; 25.2 µM in assay [6]. Besides, the TGI in assay [7] is 12.6 µM; in assay [8], greater than 37.7 µM.

Regarding `CSc1nnc(-c2cc3c([nH]c4ccccc43)c(-c3cccc(O)c3)n2)n1-c1ccc(C)cc1`, the GI50 in assay [1] is 4.57 µM; in assay [2] it was 4.35 µM; in assay [3] it was 3.86 µM; in assay [4], 3.31 µM; in assay [5], 5.76 µM; in assay [6], 17.2 µM. Further, the GI50 was 2.59 µM in assay [7] and 1.95 µM in assay [8]. Besides, the TGI is 77.6 µM in assay [1]; greater than 100 µM in assay [2]; 72.1 µM in assay [3]; 15.8 µM in assay [4]; greater than 100 µM in assay [5]; 70.1 µM in assay [6]. Also, the TGI was 9.62 µM in assay [7] and 8.16 µM in assay [8].

`C[C@@]1(C(=O)O)CCC[C@]2(C)C1CC[C@]13C[C@@](O)(CO)[C@](O)(CC[C@]12O)C3` (some centres undefined): the GI50 in assay [1], in assay [2], in assay [3], in assay [4], in assay [5] and in assay [6] was greater than 100 µM throughout. The GI50 in assay [7] and in assay [8] was greater than 100 µM in each case. For the same compound, the TGI in assay [1], in assay [2], in assay [3], in assay [4], in assay [5] and in assay [6] was greater than 100 µM each time. The TGI in assay [7] and in assay [8] was greater than 100 µM throughout.

With `CCCCSc1nc(N)c2cn[nH]c2n1`, the GI50 in assay [1] is 23.9 µM; in assay [2], 14.1 µM; in assay [3] it was 22 µM; in assay [4] it was 15.5 µM; in assay [5] it was 13.8 µM; in assay [6], 16.6 µM. Moreover, the GI50 in assay [7] was 20.8 µM; in assay [8], 8.28 µM. For the same compound, the TGI in assay [1] came out at 72 µM; in assay [2] it was 34.8 µM; in assay [3], 63.2 µM; in assay [4], 35.2 µM; in assay [5], 30.9 µM; in assay [6], 54.3 µM. The TGI in assay [7] came to 38.8 µM; in assay [8], 52.6 µM.

With `CC(=O)CCc1ccc(Oc2c3c(nc4ccccc24)OCC3)cc1`, the GI50 in assay [1] was greater than 100 µM; in assay [2], greater than 100 µM; in assay [3] it was 71.4 µM; in assay [4], 52 µM; in assay [5], 35.3 µM; in assay [6], 77 µM. For the same compound, the GI50 in assay [8] is 3.7 µM. Further, the TGI in assay [1], in assay [2], in assay [3], in assay [4], in assay [5] and in assay [6] was greater than 100 µM throughout. For the same compound, the TGI in assay [8] amounted to 23.6 µM.

Consider `Cn1cc(C2=C(c3cc[nH]c3)C(=O)NC2=O)c2ccccc21`, for which the GI50 in assay [1] is greater than 25 µM; in assay [2] it was greater than 25 µM; in assay [3] it was 9.97 µM; in assay [4], greater than 25 µM; in assay [5], greater than 25 µM; in assay [6] it was greater than 25 µM. The GI50 is greater than 25 µM in assay [7] and greater than 17.5 µM in assay [8]. The TGI in assay [1], in assay [2], in assay [3], in assay [4], in assay [5] and in assay [6] was greater than 25 µM in each case. Moreover, the TGI in assay [7] and in assay [8] was greater than 25 µM in each case.

Take `CC(C)c1[nH]nc2c(NCc3ccc(-c4ccccn4)cc3)nc(SCCN)nc12`: the GI50 in assay [1] is 0.0389 µM and 0.0416 µM; in assay [2], 0.0233 µM and 0.0196 µM; in assay [3], 0.0151 µM; in assay [4] it was 0.00492 µM; in assay [5] it was 0.0212 µM and 0.0181 µM; in assay [6] it was 0.0472 µM and 0.0385 µM. Also, the GI50 is 0.0391 µM and 0.0425 µM in assay [7]; 0.0182 µM in assay [8]. In addition, the TGI in assay [1] is 11.8 µM; in assay [2], 10.6 µM; in assay [4] it was 0.205 µM and 0.212 µM; in assay [5], 0.797 µM and 0.0951 µM; in assay [6] it was 12.8 µM; in assay [7], 0.712 µM and 2.03 µM. In assay [8], this compound returned a TGI of 0.089 µM.
